Measurements as given in PubChem BioAssay (NCI).
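Growth conditions: 96-well plates. Treatment: test compound, 48 hours, 5 concentrations. Analysis: linear interpolation between bracketing concentrations; unreached endpoints set to highest concentration. GI50 is the concentration that inhibits growth by half. TGI: concentration producing complete growth inhibition.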

Key:
Assay in all cases: DTP human tumour cell line panel, 48 h
[1] = test system: A498 renal
[2] = test system: A549 NSCLC
[3] = test system: ACHN renal
[4] = test system: CAKI-1 renal
[5] = test system: CCRF-CEM leukemia
[6] = test system: DU-145 prostate
[7] = test system: EKVX NSCLC
[8] = test system: HCC-2998 colon
[9] = test system: HCT-15 colon
[10] = test system: HL-60(TB) leukemia
[11] = test system: HS 578T breast
[12] = test system: IGROV1 ovarian
[13] = test system: K-562 leukemia
[14] = test system: KM12 colon
[15] = test system: MALME-3M melanoma
[16] = test system: MCF7 breast
[17] = test system: MDA-MB-435
[18] = test system: MOLT-4 leukemia
[19] = test system: NCI-H23 lung
[20] = test system: NCI-H460 lung
[21] = test system: NCI/ADR-RES ovarian
[22] = test system: OVCAR-3 ovarian
[23] = test system: OVCAR-4 ovarian
[24] = test system: OVCAR-5 ovarian
[25] = test system: OVCAR-8 ovarian
[26] = test system: PC-3 prostate
[27] = test system: RPMI-8226 leukemia
[28] = test system: SF-539 CNS
[29] = test system: SK-MEL-28 melanoma
[30] = test system: SN12C renal
[31] = test system: SNB-19 CNS
[32] = test system: SNB-75 CNS
[33] = test system: SR leukemia
[34] = test system: SW-620 colon
[35] = test system: UACC-62 melanoma
[36] = test system: UO-31 renal
[37] = test system: NCI-H226 lung

c1ccc(-c2c(-c3ccccc3)[n+](Cc3ccc4ccccc4c3)c(-c3ccc(-c4nc5ccccc5s4)cc3)n2Cc2ccc3ccccc3c2)cc1
GI50 [1]: 156 nM | TGI [1]: 542 nM | GI50 [2]: 176 nM | TGI [2]: 1550 nM | GI50 [3]: 178 nM | TGI [3]: 378 nM | GI50 [4]: 189 nM | TGI [4]: 451 nM | GI50 [5]: 202 nM | TGI [5]: > 41500 nM | GI50 [6]: 262 nM | TGI [6]: 1030 nM | GI50 [7]: 187 nM | TGI [7]: 1190 nM | GI50 [8]: 244 nM | TGI [8]: 1010 nM | GI50 [9]: 335 nM | TGI [9]: 1130 nM | GI50 [10]: 149 nM | TGI [10]: 471 nM | GI50 [11]: 296 nM | TGI [11]: 1410 nM | GI50 [12]: 121 nM | TGI [12]: 408 nM | GI50 [13]: 94.5 nM | TGI [13]: 3790 nM | GI50 [14]: 130 nM | TGI [14]: 336 nM | GI50 [15]: 53.6 nM | TGI [15]: 204 nM | GI50 [16]: 58.7 nM | TGI [16]: 337 nM | GI50 [17]: 209 nM | TGI [17]: 557 nM | GI50 [18]: 139 nM | TGI [18]: 759 nM | GI50 [19]: 93.3 nM | TGI [19]: 759 nM | GI50 [20]: 231 nM | TGI [20]: 1110 nM | GI50 [21]: 1070 nM | TGI [21]: 2610 nM | GI50 [22]: 81.4 nM | TGI [22]: 626 nM | GI50 [23]: 48.6 nM | TGI [23]: 1120 nM | GI50 [24]: 311 nM | TGI [24]: 1170 nM | GI50 [25]: 151 nM | TGI [25]: 1120 nM | GI50 [26]: 111 nM | TGI [26]: 528 nM | GI50 [27]: 62.5 nM | TGI [27]: 426 nM | GI50 [28]: 305 nM | TGI [28]: 1240 nM | GI50 [29]: 368 nM | TGI [29]: 1570 nM | GI50 [30]: 218 nM | TGI [30]: 1040 nM | GI50 [31]: 78.4 nM | TGI [31]: 1260 nM | GI50 [32]: 201 nM | TGI [32]: 895 nM | GI50 [33]: 140 nM | TGI [33]: 756 nM | GI50 [34]: 140 nM | TGI [34]: 764 nM | GI50 [35]: 236 nM | TGI [35]: 1250 nM | GI50 [36]: 280 nM | TGI [36]: 872 nM

C#CC[C@@H]1C[C@]2(C)[C@H]3CC[C@@H]4[C@H]5C(C(=C)C)CC[C@]5(C(=O)NCCN(CCN)CCN)CC[C@@]4(C)[C@]3(C)CC[C@H]2C(C)(C)[C@H]1OC(C)=O (stereo partly specified)
GI50 [37]: 2060 nM | TGI [37]: 4690 nM | GI50 [23]: 2350 nM | TGI [23]: 5320 nM
